Assays:
CYP17A1 [1] = biological target: T1, CYP17A1 (Homo sapiens, UniProt P05093); test: Inhibition of CYP17A1-mediated progesterone 17α-hydroxylation; assay type: biochemical; conditions: for increase in IC50 for CYP17A1: relative to abiraterone
T1 sequence (P05093 with tags, fused parts or gaps limits assumed): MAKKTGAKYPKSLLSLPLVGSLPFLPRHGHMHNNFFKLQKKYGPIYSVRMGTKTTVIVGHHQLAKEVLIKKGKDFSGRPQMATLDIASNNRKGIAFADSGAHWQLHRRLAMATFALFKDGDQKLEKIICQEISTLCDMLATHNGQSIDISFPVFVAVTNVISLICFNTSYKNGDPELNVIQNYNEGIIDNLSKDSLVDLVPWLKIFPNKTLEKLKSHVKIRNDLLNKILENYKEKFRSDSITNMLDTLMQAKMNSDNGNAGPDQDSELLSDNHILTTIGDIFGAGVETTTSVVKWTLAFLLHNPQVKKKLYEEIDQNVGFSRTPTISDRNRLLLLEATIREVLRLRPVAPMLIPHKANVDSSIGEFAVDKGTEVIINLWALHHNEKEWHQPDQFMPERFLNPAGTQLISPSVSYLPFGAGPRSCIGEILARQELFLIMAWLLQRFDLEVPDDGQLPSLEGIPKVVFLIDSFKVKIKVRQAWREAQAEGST

CYP21A2 [2] = biological target: T2, CYP21A2 (Homo sapiens, UniProt P08686); test: Inhibition of CYP21A2-mediated progesterone 21-hydroxylation; assay type: biochemical
T2 sequence (P08686 with tags, fused parts or gaps): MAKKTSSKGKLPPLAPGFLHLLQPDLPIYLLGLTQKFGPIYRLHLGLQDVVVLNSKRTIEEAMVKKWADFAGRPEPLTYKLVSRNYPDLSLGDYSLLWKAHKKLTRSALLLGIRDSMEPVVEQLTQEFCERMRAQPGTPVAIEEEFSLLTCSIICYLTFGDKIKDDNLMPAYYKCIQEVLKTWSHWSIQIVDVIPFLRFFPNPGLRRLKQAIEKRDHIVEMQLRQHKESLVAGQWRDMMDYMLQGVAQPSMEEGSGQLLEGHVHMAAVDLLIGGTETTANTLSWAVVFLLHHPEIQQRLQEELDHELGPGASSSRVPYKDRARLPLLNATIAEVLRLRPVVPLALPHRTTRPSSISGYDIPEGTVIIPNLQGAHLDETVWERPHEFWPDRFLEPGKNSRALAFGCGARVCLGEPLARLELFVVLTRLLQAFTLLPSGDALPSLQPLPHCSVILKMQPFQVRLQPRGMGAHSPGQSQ

CYP17A1 [3] = biological target: T1, CYP17A1; conditions: reported; cited from earlier work
CYP21A2 [4] = test: Inhibition of CYP21A2-mediated progesterone 21-hydroxylation; assay type: biochemical, human

C[C@]12CC[C@H](O)CC1=CC[C@@H]1[C@@H]2CC[C@]2(C)C(c3ccccc3)=CC[C@@H]12 [3b, 17-Phenylandrosta-5,16-dien-3β-ol]
increase in IC50 for CYP17A1 (CYP17A1 [1]): more than 4,000 fold
increase in IC50 for CYP21A2 (CYP21A2 [2]; relative to abiraterone): > 20 fold

C[C@]12CC[C@H]3[C@@H](C[C@@H]4O[C@@]45C[C@@H](O)CC[C@]35C)[C@@H]1CC=C2c1cccnc1 [6b, 5α,6α-Epoxy-17-(3-pyridyl)androst-16-en-3β-ol]
IC50 (CYP17A1 [1]): 7.83 ± 0.92 nM
IC50 (CYP21A2 [2]): 42.1 ± 8.5 nM

C[C@]12CC[C@H](O)C[C@@H]1C(=NO)C[C@@H]1[C@@H]2CC[C@]2(C)C(c3cccnc3)=CC[C@@H]12 [13b, 3β-Hydroxy-17-(3-pyridyl)-5α-androst-16-en-6-one oxime]
IC50 (CYP17A1 [1]): 16.5 ± 2.5 nM
increase in IC50 for CYP17A1 (CYP17A1 [1]): ca. 3 fold
IC50 (CYP21A2 [2]): 1390 ± 120 nM
increase in IC50 for CYP21A2 (CYP21A2 [2]; relative to abiraterone): 43 fold

C[C@]12CC[C@H](O)C[C@@H]1NC(=O)C[C@@H]1[C@@H]2CC[C@]2(C)C(c3cccnc3)=CC[C@@H]12 [14b, 6-Aza-7-oxo-17-(3-pyridyl)-B-homo-5α-androst-16-en-3β-ol]
selectivity for CYP17A1 inhibition over CYP21A2 inhibition (CYP17A1 [1]; progesterone hydroxylation reactions): ca. 16 fold

C[C@]12CCC(=O)C=C1CC[C@@H]1[C@@H]2CC[C@]2(C)C(c3cccnc3)=CC[C@@H]12 [compound 4, 17-(3-Pyridyl)androsta-4,16-dien-3-one]
inhibition of CYP17A1 (CYP17A1 [3]): comparably to abiraterone itself
decrease in the IC50 for CYP21A2 (CYP21A2 [2]; relative to abiraterone): 46 fold
selectivity for CYP21A2 over CYP17A1 (CYP21A2 [4]): 8.8 times

C[C@]12CC[C@H](O)CC1=C(C#N)C[C@@H]1[C@@H]2CC[C@]2(C)C(c3cccnc3)=CC[C@@H]12 [compound 7, 3β-Hydroxy-17-(3-pyridyl)androsta-5,16-dien-6-carbonitrile]
increase in IC50 for CYP17A1 (CYP17A1 [1]): 3 fold

C[C@]12CC[C@H](O)CC1=C(C(N)=O)C[C@@H]1[C@@H]2CC[C@]2(C)C(c3cccnc3)=CC[C@@H]12 [compound 8, 3β-Hydroxy-17-(3-pyridyl)androsta-5,16-dien-6-carboxamide]
increase in IC50 for CYP17A1 (CYP17A1 [1]): 4.6 fold
increase in IC50 for CYP21A2 (CYP21A2 [2]; relative to abiraterone): 20 fold
